From EP0430485A2, “Quinoline compound” (priority 1989, dated 1991) come the findings set out here.

Counter-ions that a name gives are not always drawn.

For the first experiment, the system named is scopolamine-induced amnesia. In kind it is in vivo, Wistar male rats. Conditions: rat, in vivo. How it is done: In order to show effects of the compounds according to the present invention in more detail, a part of experimental examples relating to action against scopolamine-induced amnesia for step-through passive avoidance response in rats is shown below.
Wistar male rats of 7 to 8 weeks old were used to experiment after fasting for 12 hours. Rats were divided into groups with 8 rats per group and 1.5 mg/kg of scopolamine was intraperitoneally administered. After 30 minutes from the administration, rats were placed in a light compartment of a step-through type passive avoidance apparatus constituted by two compartments (25 × 10 × 25 cm of a light compartment and 30 × 30 × 30 cm of a dark compartment having a guillotine door and a floor grid for passing current) and a latent time by entering into a dark compartment was measured. The guillotine door was shut when a rat entered into the dark compartment and shock with 0.6 mA for 3 seconds was applied through the floor grid for acquisition trial. After acquisition trial, 10 mg/kg of each test compound was orally administered to rats and returned to their home cage. After 24 hours, rats were again placed in the light compartment at which the guillotine door was opened, a latent time by entering into the dark compartment was measured whereby presence or absence of improved effect of memory retention was judged.
With `Nc1c2c(nc3ccccc13)CCCC2` [Tacrine, 9-amino-1,2,3,4-tetrahydroacridine, reference compound], the “Latent time of memory retention” value is 58 s.

Staying with this experiment, now noted: rats, scopolamine 1.5 mg/kg intraperitoneally; test compound 10 mg/kg p.o. after acquisition trial; latent time by entering the dark compartment measured after 24 hours; 8 rats per group.
Regarding “4-Amino-5-fluoro-1-isoamyl-2,3-dihydro-1H-pyrrolo[2,3-b]quinoline·trihydrate [Example 33]”, the “Latent time of memory retention” value came out at 151 s.

Regarding `CN1CCc2c1nc1ccccc1c2N` [Example 1, 4-amino-1-methyl-2,3-dihydro-1H-pyrrolo[2,3-b] quinoline], the “Latent time of memory retention” value was found to be 128 s.

With `CCCCCCCCCCCCN1CCCCc2c1nc1cccc(F)c1c2N` [Example 3, 6-amino-1-dodecyl-7-fluoro-2,3,4,5-tetrahydro-1H-azepino[2,3-b]quinoline], the “Latent time of memory retention” value is 140 s.

In the case of `Nc1c2c(nc3ccccc13)N(Cc1ccccc1)CCCC2` [Example 10, 6-Amino-1-benzyl-2,3,4,5-tetrahydro-1H-azepino[2,3-b]-quinoline·hydrochloride], the “Latent time of memory retention” value was found to be 188 s.

Take `Nc1c2c(nc3cccc(Cl)c13)N(Cc1ccccc1)CCCC2` [Example 11, 6-Amino-1-benzyl-7-chloro-2,3,4,5-tetrahydro-1H-azepino[2,3-b]quinoline·hydrochloride]: the “Latent time of memory retention” value was found to be 163 s.

For `Nc1c2c(nc3cccc(F)c13)NCCC2` [Example 20, 5-amino-6-fluoro-1,2,3,4-tetrahydrobenzo[d] [1,8]naphthylidine], the “Latent time of memory retention” value turned out to be 59 s.

`Nc1c2c(nc3cccc(Cl)c13)NCCC2` [Example 21, 5-amino-6-chloro-1,2,3,4-tetrahydrobenzo[b] [1,8]naphthylidine]: the “Latent time of memory retention” value turned out to be 117 s.

Consider `Nc1c2c(nc3ccccc13)NCC2` [Example 22, 4-Amino-2,3-dihydro-1H-pyrrolo[2,3-b]quinoline·hydrobromide], for which the “Latent time of memory retention” value was 78 s.

Regarding `CC(=O)N1CCCc2c1nc1cccc(F)c1c2N` [Example 24, 1-acetyl-5-amino-6-fluoro-1,2,3,4-tetrahydrobenzo[b] [1,8]naphthylidine], the “Latent time of memory retention” value was 168 s.

In the case of `Nc1c2c(nc3cccc(F)c13)N(C(=O)c1ccccc1)CCC2` [Example 26], the “Latent time of memory retention” value was 84 s.

As for `Nc1c2c(nc3cc(Cl)ccc13)NCCC2` [Example 31, 5-Amino-8-chloro-1,2,3,4-tetrahydrobenzo[b] [1,8]naphthylidine], the “Latent time of memory retention” value was found to be 72 s.
